Where a name gives a salt, the structure may show the parent alone.

For orientation: melting point means the temperature of the solid-liquid transition. Usually IC50 stands for the concentration that gives 50% inhibition. One may read the EC50 as the concentration needed to bring the measured effect to its halfway point.

Series [1] has as its target T1, recombinant HDAC1 isolated from HEK293 cells with heterologous HDAC1 expression (Homo sapiens, UniProt Q13547).
T1 construct: made in house
In words: Fluorimetric rHDAC1 activity assay. Type of series: biochemical. The settings on record: only a range of IC50 over the compounds given; read-out: rHDAC1 inhibitory activity IC50.

Series [2] deals with A549 NSCLC cell line. Description: Cellular cytotoxicity assay (Alamar Blue), A549. Particulars: Homo sapiens, A549; 72 h; only a range over the listed compounds is given; read-out: Cytotoxicity towards A549 NSCLC cell line IC50. Type of series: cell-based. The method, then:
(§1) The anti-proliferative activity of the chimeric HDAC and protein kinase inhibitory chimeric compounds of the present invention was evaluated using HeLa cervical carcinoma, A549 NSCLC, SKOV3 ovarian carcinoma, Cal27 head and neck cancer, K562 chronic myeloid leukemia (CML) and EOL1 acute hypereosinophilic myeloid leukemia, cell lines. For quantification of cellular proliferation/living cells the Alamar Blue (Resazurin) cell viability assay was applied (O'Brien et al. Eur Biochem. 267, 5421-5426, 2000). In this assay Resazurin is reduced to the fluorescent resorufin by cellular dehydrogenase activity, correlating with viable, proliferating cells. The examples were dissolved as 20 mM solutions in dimethylsulfoxide (DMSO) and subsequently diluted in semi-logarithmic steps. Cell lines were seeded at respective density into 96 well flat bottom plates in a volume of 200 μl per well. 24 h after seeding 1 μl each of the compound dilutions were added into each well of the 96 well plate. Each compound dilution was tested as quadruplicates. Wells containing untreated control cells were filled with […] DMEM medium containing 0.5% v:v DMSO. The cells were then incubated with the substances for 72 h at 37° C. in a humidified atmosphere containing 5% carbon dioxide. To determine the viability of the cells, 20 μl of an Resazurin solution (Sigma; 90 mg/l) were added. After 4 h incubation at 37° C. the fluorescence was measured at an extinction of 544 nm and an emission of 590 nm. For the calculation of the cell viability the emission value from untreated cells was set as 100% viability and the emission rates of treated cells were set in relation to the values of untreated cells. Viabilities were expressed as % values. The corresponding IC50 values of the compounds for cytotoxic activity are determined from the concentration-effect curves by means of non-linear regression.
(Alamar Blue is a resazurin reagent that responds to reducing activity.)

The test system of series [3] is HeLa cervical carcinoma cell line. In words: Cellular cytotoxicity assay (Alamar Blue), HeLa. Type of series: cell-based. The settings on record: Homo sapiens, 72 h, only a range over the listed compounds is given, read-out: Cytotoxicity towards HeLa cervical cell line IC50. The method, then:
as §1

Series [4] has as its system SKOV3 ovarian carcinoma cell line. In words: Cellular cytotoxicity assay (Alamar Blue), SKOV3. The settings on record: Homo sapiens, SK-OV-3; 72 h; only a range over the listed compounds is given; read-out: Cytotoxicity towards SKOV3 cell line IC50. Type of series: cell-based. Here is the method:
as §1

For series [5], the system named is histone H3 hyperacetylation in HeLa cervical carcinoma cells. In words: Cellular histone H3 hyperacetylation assay. The settings on record: Homo sapiens, 24 h, only a range over the listed compounds is given, read-out: Induction of histone H3 hyperacetylation in HeLa cervical carcinoma cells EC50. Type of series: cell-based. The source says:
To assess the cellular efficacy of a histone deacetylase inhibitor in vitro, an assay was set up in black clear-bottom 96-well plates and optimized for use on the Cellomics “ArrayScan II” platform for a quantitative calculation of histone acetylation. The protocol uses a polyclonal rabbit antibody, specifically binding to acetylated lysine 1-20 of human histone H3 on fixed cells with an Alexa Fluor 488 labeled goat anti rabbit-IgG used for counterstaining (Beckers et al. Int J. Cancer 121, 1138, 2007).
5×10^3 HeLa cervical carcinoma cells/well (ATCC. CCL-2) in 200 μl Dulbecco rs modified Eagle's medium (DMEM) containing 10% fetal calf serum are seeded at day 1 in Packard view plates and incubated for 24 h under standard cell culture conditions. On day 2, 1 μl test compound (200× final concentration) is added and incubation continued for further 24 h. On day 3, the culture medium is discarded and attached cells fixed for 15 min at room temperature by addition of 100 μl fixation buffer (3.7% v:v formaldehyde in phosphate buffered saline/PBS). After discarding the fixation buffer and one wash with blocking solution (1% BSA, 0.3% Tween 20 in PBS), cells are permeabilized at room temperature by addition of 100 μl/well permeabilization buffer (30.8 mM NaCl, 0.54 mM Na2HPO4, 0.31 mM KH2PO4, 0.1% v:v Triton X-100) for 15 min at room temperature. After discarding the permeabilization buffer and washing twice with 100 μl/well blocking solution at room temperature, the 1st antibody (anti-K^1-20 histone H3 antibody, Calbiochem No. 382158) in blocking solution (50 μl/well) is added. After incubation for 1 h at room temperature, the wells are washed twice at room temperature with 100 μl/well blocking solution before addition of the 2nd antibody (goat-anti-rabbit Alexa Fluor 488; MoBiTec No. A-11008) in blocking solution (50 μl/well). After further incubation for 1 h at room temperature, wells are washed twice with 100 μl/well blocking solution at room temperature. Finally, 100 μl/well PBS are added and image analysis performed on the Cellomics “ArrayScan II” platform. For EC50 determination, the percentage of positive cells showing nuclear fluorescence is determined and EC50 calculation done from concentration-effect curves by means of non-linear regression. For calibration, a positive (reference HDAC inhibitors like SAHA or NVP LBH-589) and a negative control were included.

T1 sequence (Q13547 whole entry): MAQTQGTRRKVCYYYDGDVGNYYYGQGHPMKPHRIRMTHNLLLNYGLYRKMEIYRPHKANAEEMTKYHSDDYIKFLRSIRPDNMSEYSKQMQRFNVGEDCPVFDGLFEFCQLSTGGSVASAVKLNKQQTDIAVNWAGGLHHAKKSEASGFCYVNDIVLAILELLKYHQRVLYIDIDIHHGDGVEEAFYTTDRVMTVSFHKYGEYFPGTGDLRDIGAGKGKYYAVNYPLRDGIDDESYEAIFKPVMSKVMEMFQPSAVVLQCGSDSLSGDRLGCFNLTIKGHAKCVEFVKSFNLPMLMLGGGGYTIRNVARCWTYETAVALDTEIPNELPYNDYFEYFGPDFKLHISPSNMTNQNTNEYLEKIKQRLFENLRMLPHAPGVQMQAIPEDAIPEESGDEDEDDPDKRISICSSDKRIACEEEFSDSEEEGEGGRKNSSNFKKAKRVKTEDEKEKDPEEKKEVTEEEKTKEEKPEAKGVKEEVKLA

As to `Cc1ccc(NC(=O)c2ccc(C(=O)Nc3ccccc3N)nc2)cc1Nc1nccc(-c2cccnc2)n1` [[23], N^2-(2-aminophenyl)-N^5-(4-methyl-3-(4-(pyridin-3-yl)pyrimidin-2-ylamino)phenyl)pyridine-2,5-dicarboxamide], the melting point lay within 150.5 to 152.5 °C.
For the compound `C#Cc1cccc(Nc2ncnc3ccc(OCc4ccc(C(=O)Nc5ccccc5N)cc4)cc23)c1` [[44], N-(2-aminophenyl)-4-((4-(3-ethynylphenylamino)quinazolin-6-yloxy)methyl)benzamide], in series [1], the IC50 was ≥ 0.0065 µM.
As to `O=C(/C=C/c1ccc(C(=O)Nc2cccc(Nc3nc(-c4cccnc4)cs3)c2)cc1)NO` [[22], (E)-4-(3-(hydroxyamino)-3-oxoprop-1-enyl)-N-(3-(4-(pyridin-3-yl)thiazol-2-ylamino)phenyl)benzamide], the melting point amounted to 100.6 °C. Besides, in series [1], the IC50 was in the range of 0.077 to 1.4 µM.
`C#Cc1cccc(Nc2ncnc3cc(NC(=O)c4cccc(/C=C/C(=O)Nc5ccccc5N)c4)ccc23)c1` [[42], (E)-3-(3-(2-aminophenylamino)-3-oxoprop-1-enyl)-N-(4-(3-ethynylphenylamino)quinazolin-7-yl)benzamide] displayed a melting point of 190 to 194.2 °C. The IC50 in series [1] was ≥ 0.0065 µM.
`Nc1ccccc1NC(=O)c1ccc(C(=O)Nc2cccc(Nc3nc(-c4cccnc4)cs3)c2)cc1` (hydrate or solvate) [[18], N^1-(2-aminophenyl)-N^4-(3-(4-(pyridin-3-yl)thiazol-2-ylamino)phenyl)terephthalamide hydrate] had a melting point of 224.8 to 224.9 °C.
Same read-out and setting: the value for `Cc1ccc(NC(=O)c2ccc(C(=O)Nc3ccccc3N)s2)cc1Nc1nc(-c2cccnc2)cs1` [[27], N^2-(2-aminophenyl)-N^5-(4-methyl-3-(4-(pyridin-3-yl)thiazol-2-ylamino)phenyl)thiophene-2,5-dicarboxamide] was 242.4 °C.
Consider `Nc1ccccc1NC(=O)/C=C/c1ccc(-c2ccc3ncnc(Nc4ccc(OCc5cccc(F)c5)c(Cl)c4)c3c2)cc1` [[10], (E)-N-(2-aminophenyl)-3-(4-(4-(3-chloro-4-(3-fluorobenzyloxy)phenylamino)quinazolin-6-yl)phenyl)acrylamide], for which the IC50 in series [1] is ≥ 0.0353 µM; in series [2] it was ≥ 1.1 µM.
Take `Nc1ccccc1NC(=O)c1ccc(COc2ccc3ncnc(Nc4cccc(Br)c4)c3c2)cc1` [[43], N-(2-aminophenyl)-4-((4-(3-bromophenylamino)quinazolin-6-yloxy)-methyl)benzamide]: the melting point lay in the range of 215 to 218 °C.
Regarding `Nc1ccccc1NC(=O)CCc1ccc(-c2ccc3ncnc(Nc4ccc(OCc5cccc(F)c5)c(Cl)c4)c3c2)cc1` [[12], N-(2-aminophenyl)-3-(4-(4-(3-chloro-4-(3-fluorobenzyloxy)phenylamino)quinazolin-6-yl)phenyl)propanamide], the 50% inhibitory concentration (IC50) in series [1] was ≥ 0.0353 µM; in series [2], ≥ 1.1 µM.
On to `Nc1ccccc1NC(=O)c1ccc(C(=O)Nc2ccc(Cl)c(Nc3nccc(-c4cccnc4)n3)c2)cc1` [[32], N-(2-Amino-phenyl)-N′-[4-chloro-3-(4-pyridin-3-yl-pyrimidin-2-ylamino)-phenyl]-terephthalamide compound with hydrochloric acid], for which, in series [2], the IC50 is ≥ 2.95 µM.
In the case of `O=C(/C=C/c1ccc(C(=O)Nc2cccc(Nc3nc(-c4cccnc4)cs3)c2)s1)NO` [[34], (E)-5-(3-(hydroxyamino)-3-oxaprop-1-enyl)-N-(3-(4-(pyridin-3-yl)thiazol-2-ylamino)phenyl)thiophene-2-carboxamide], the melting point stood at 205.6 °C. Also, the IC50 in series [2] is ≥ 2.95 µM.
The compound `C#Cc1cccc(Nc2ncnc3ccc(NC(=O)c4ccc(C(=O)Nc5ccccc5N)cc4)cc23)c1` [[37], N-(2-Amino-phenyl)-N′-[4-(3-ethynyl-phenylamino)-quinazolin-6-yl]-terephthalamide] showed a melting point of 253 to 258 °C. The IC50 in series [2] is ≥ 0.24 µM. Besides, the IC50 in series [3] is ≥ 0.5 µM. Also, in series [4], the IC50 was ≥ 0.56 µM.
`Cc1ccc(NC(=O)c2ccc(C(=O)Nc3ccccc3N)cc2)cc1Nc1nc(-c2cccnc2)cs1` [[21], N^1-(2-aminophenyl)-N^4-(4-methyl-3-(4-(pyridin-3-yl)thiazol-2-ylamino)phenyl)terephthalamide] came in with a melting point of 147.1 °C.
Still for that read-out and setting: the value for `Nc1ccccc1NC(=O)c1ccc(C(=O)Nc2cccc(Nc3nc(-c4cccnc4)cs3)c2)s1` (as salt: salt) [[28], N^2-(2-aminophenyl)-N^5-(3-(4-(pyridin-3-yl)thiazol-2-ylamino)phenyl)thiophene-2,5-dicarboxamide] was 222.3 °C.
As for `O=C(NO)c1ccc(C(=O)Nc2cccc(Nc3nc(-c4cccnc4)cs3)c2)cc1` [[17], N^1-hydroxy-N^4-(3-(4-(pyridin-3-yl)thiazol-2-ylamino)phenyl)terephthalamide], the melting point turned out to be 205.5 °C. The IC50 in series [2] was ≥ 2.95 µM.
Turning to `Nc1ccccc1NC(=O)c1ccc(C(=O)Nc2cccc(Nc3nccc(-c4cccnc4)n3)c2)cc1` [[31], N-(2-Amino-phenyl)-N′-[3-(4-pyridin-3-yl-pyrimidin-2-ylamino)-phenyl]-terephthalamide], the IC50 in series [2] was ≥ 2.95 µM.
In the case of `Cc1ccc(NCc2ccc(/C=C/C(=O)NO)cc2)cc1Nc1nccc(-c2cccnc2)n1` [[16], (E)-N-Hydroxy-3-(4-{[4-methyl-3-(4-pyridin-3-yl-pyrimidin-2-ylamino)-phenylamino]methyl}-phenyl)-acrylamide], the melting point was 201 to 205 °C. The concentration for half-maximal inhibition (IC50) in series [1] fell in the range of 0.077 to 1.4 µM. The EC50 in series [5] lay within 1.7 to 10 µM. In addition, in series [2], the IC50 was ≥ 2.95 µM. Further, the IC50 in series [3] was ≥ 1.15 µM.
Consider `C#Cc1cccc(Nc2ncnc3ccc(NC(=O)c4ccc(C(=O)Nc5ccccc5N)s4)cc23)c1` [[38], Thiophene-2,5-dicarboxylic acid 2-[(2-amino-phenyl)-amide]-5-{[4-(3-ethynyl-phenylamino)-quinazolin-6-yl]-amide}], for which the values for the IC50 in series [2], in series [3] and in series [4] were ≥ 0.24 µM, ≥ 0.5 µM and ≥ 0.56 µM, respectively.
`Nc1ccccc1NC(=O)/C=C/c1ccc(-c2ccc3ncnc(Nc4ccc(OCc5cccc(F)c5)c(Cl)c4)c3c2)o1` [[13], (E)-N-(2-aminophenyl)-3-(5-(4-(3-chloro-4-(3-fluorobenzyloxy)phenylamino)quinazolin-6-yl)furan-2-yl)acrylamide]: the IC50 in series [1] is ≥ 0.0353 µM; in series [2], ≥ 1.1 µM.
With `C#Cc1cccc(Nc2ncnc3cc(NC(=O)c4ccc(C(=O)Nc5ccccc5N)cc4)ccc23)c1` [[41], N-(2-Amino-phenyl)-N′-[4-(3-ethynyl-phenylamino)-quinazolin-7-yl]-terephthalamide], the IC50 in series [4] was ≥ 0.56 µM.

For the origin of these results see patent publication US20110065734A1, “NOVEL BIFUNCTIONAL COMPOUNDS WHICH INHIBIT PROTEIN KINASES AND HISTONE DEACETYLASES” (4SC AG, priority 2007, published 2011).
